Results published in patent publication EP0212822A1, “A composition containing a plant growth regulator and an alkanol and a method of using the same” (ICI AMERICAS INC., priority 1985, dated 1987).

Tests used:
Siberian Elm = assay: Trunk injection of trees (Brown method), Retardation and Uniformity Ratings; type: in vivo, Ulmus pumila (Siberian Elm); set-up: key to Uniformity Rating (U): 0 = no effect from PGR; 1 = poor; 2 = fair; 3 = acceptable; 4 = very good; 5 = excellent; settings: 10 g (II) in 1 liter methanol
Experimental: A method of tree injection and apparatus employed herein is discussed in G. K. Brown, "Prototype Equipment for Commercial Pressure - Injection of Aqueous Growth Regulators Into Trees," Journal of Arboriculture, Vol. 4, pp. 7-13, 1978, and in the references noted therein. Under the Brown method the number of injection holes and total injection volume (TIV) of PGR solution is determined by measuring the diameter of the tree at DBH and using the following formulae: […]
(§1) The examples which follow exemplify the improvements obtained by this invention. However, these examples are not intended to limit the scope of the invention. In Examples 1-41, the subject trees were injected at a distance approximately one foot from the soil line by drilling 7/32 inch diameter holes to a 2 inch depth at a 30-45° angle tangential to the trunk with a pressure injector (150 psi) purchased from the Asplundh Tree Expert Co., Company No. 346-3502. The results are expressed in terms of Retardation and Uniformity Ratings. The Retardation rating scale is as follows: • 0 = no retardataion • 1 = 1-20% retardation • 2 = 21-40% retardation • 3 = 41-60% retardation • 4 = 61-80% retardation • 5 = 81-100% retardation
(§2) The Uniformity Rating is a measure of the consistency of response to the treatment between different branches of the tree. The Uniformity scale employed is as follows: • 0 = no effect from PGR • 1 = poor • 2 = fair • 3 = acceptable • 4 = very good • 5 = excellent
10 (0.034 moles) grams of (2RS,3RS)-1-(4-chlorophenyl)-4,4-dimethyl-2-1,2,4-triazol-1-yl)pen- tan-3-ol (II) of the formula [drawing 41] was dissolved in 1 liter of methanol at room temperature and was stirred until the solution was clear, approximately 20 minutes.
In these examples, the number of injection holes, volume per injection hole and total injection volume in ml was determined from the DBH in accordance' with the Brown method.

Water Oak = assay: Trunk injection, holes at 8 inch intervals, Retardation and Uniformity Ratings; type: in vivo, Quercus nigra (Water Oak); set-up: key to Uniformity Rating (U): 0 = no effect from PGR; 1 = poor; 2 = fair; 3 = acceptable; 4 = very good; 5 = excellent; key to Retardation Rating (R): 0 = no retardataion; 1 = 1-20% retardation; 2 = 21-40% retardation; 3 = 41-60% retardation; 4 = 61-80% retardation; 5 = 81-100% retardation; settings: 75 ml/hole
Experimental: as §1, §2
(§3) 10 (0.034 moles), 20 (0.068 moles) and 40 grams (0.136 moles) of (2RS, 3RS)-1-(4-chlorophenyl)-4,4-dimethyl-2-1,2,4-triazol-1-yl)pentan-3-ol (PGR) was dissolved in 1,1 and 1 liter, respectively, of methanol at room temperature and was stirred until the solution was clear, approximately 20 to 60 minutes. In these examples, the injection holes were placed at approximate 8 inch intervals.

Sycamore = assay: as above; type: in vivo, Platanus occidentalis (Sycamore); set-up: key to Uniformity Rating (U): 0 = no effect from PGR; 1 = poor; 2 = fair; 3 = acceptable; 4 = very good; 5 = excellent; settings: 75 ml/hole
Experimental: as §1, §2, §3

Willow Oak = assay: Trunk injection, holes at 4 inch intervals, Retardation and Uniformity Ratings; type: in vivo, Quercus phellos (Willow Oak); set-up: key to Uniformity Rating (U): 0 = no effect from PGR; 1 = poor; 2 = fair; 3 = acceptable; 4 = very good; 5 = excellent; settings: 38 ml/hole
Experimental: as §1, §2
10 (0.034 moles), 20 (0.068 moles) and 40 grams (0.136 moles) of (2RS, 3RS)-1-(4-chlorophenyl)-4,4-dimethyl-2-l,2,4-triazol-l-yl)pentan-3-ol (PGR) were dissolved in 1,1 and 1 liter, respectively, of methanol at room temperature and was stirred until the solution was clear, approximately 20 to 60 minutes. In these examples, the injection holes were placed at approximate 4 inch intervals.

[1] = week 14 after treatment, listed as 1, 12 in. DBH tree, 229 ml per tree
[2] = week 14 after treatment, listed as 2, 17 in. DBH tree, 432 ml per tree
[3] = week 14 after treatment, listed as 3, 13 in. DBH tree, 268 ml per tree
[4] = week 14 after treatment, listed as 4, 11 in. DBH tree, 192 ml per tree
[5] = week 14 after treatment, listed as 5, 15 in. DBH tree, 119 ml per tree
[6] = week 14 after treatment, listed as 6, 11 in. DBH tree, 192 ml per tree
[7] = week 67 after treatment, listed as 1, 12 in. DBH tree, 229 ml per tree
[8] = week 67 after treatment, listed as 2, 17 in. DBH tree, 432 ml per tree
[9] = week 67 after treatment, listed as 3, 13 in. DBH tree, 268 ml per tree
[10] = week 67 after treatment, listed as 4, 11 in. DBH tree, 192 ml per tree
[11] = week 67 after treatment, listed as 5, 15 in. DBH tree, 119 ml per tree
[12] = week 67 after treatment, listed as 6, 11 in. DBH tree, 192 ml per tree
[13] = week 24, 10 g PGR in 1 liter methanol, listed as 7, 10 injection holes, 750 ml per tree
[14] = week 24, 10 g PGR in 1 liter methanol, listed as 8, 10 injection holes, 750 ml per tree
[15] = week 24, 10 g PGR in 1 liter methanol, listed as 9, 6 injection holes, 450 ml per tree
[16] = week 24, 10 g PGR in 1 liter methanol, listed as 10, 6 injection holes, 450 ml per tree
[17] = week 24, 20 g PGR in 1 liter methanol, listed as 11
[18] = week 24, 20 g PGR in 1 liter methanol, listed as 12
[19] = week 24, 20 g PGR in 1 liter methanol, listed as 13
[20] = week 24, 40 g PGR in 1 liter methanol, listed as 15, 7 injection holes, 525 ml per tree
[21] = week 24, 40 g PGR in 1 liter methanol, listed as 16, 10 injection holes, 750 ml per tree
[22] = week 24, 40 g PGR in 1 liter methanol, listed as 17, 6 injection holes, 450 ml per tree
[23] = week 56, 10 g PGR in 1 liter methanol, listed as 7, 10 injection holes, 750 ml per tree
[24] = week 56, 10 g PGR in 1 liter methanol, listed as 8, 10 injection holes, 750 ml per tree
[25] = week 56, 10 g PGR in 1 liter methanol, listed as 9, 6 injection holes, 450 ml per tree
[26] = week 56, 10 g PGR in 1 liter methanol, listed as 10, 6 injection holes, 450 ml per tree
[27] = week 56, 20 g PGR in 1 liter methanol, listed as 11
[28] = week 56, 20 g PGR in 1 liter methanol, listed as 12
[29] = week 56, 20 g PGR in 1 liter methanol, listed as 13
[30] = week 56, 40 g PGR in 1 liter methanol, listed as 15, 7 injection holes, 525 ml per tree
[31] = week 56, 40 g PGR in 1 liter methanol, listed as 16, 10 injection holes, 750 ml per tree
[32] = week 56, 40 g PGR in 1 liter methanol, listed as 17, 6 injection holes, 450 ml per tree
[33] = week 24, 20 g PGR in 1 liter methanol
[34] = week 56, 20 g PGR in 1 liter methanol
[35] = week 24, 40 g PGR in 1 liter methanol
[36] = week 56, 40 g PGR in 1 liter methanol

## CC(C)(C)[C@@H](O)[C@@H](Cc1ccc(Cl)cc1)n1cncn1 (racemic) [Formula (II), (2RS,3RS)-1-(4-chlorophenyl-4,4-dimethyl-2-1,2,4-triazol-1-yl)pentan-3-ol]
Siberian Elm; [1]
  Retardation Rating (R): 3 (3 = 41-60% retardation)
  Uniformity Rating (U): 4
Siberian Elm; [2]
  Retardation Rating (R): 3 (3 = 41-60% retardation)
  Uniformity Rating (U): 3
Siberian Elm; [3]
  Retardation Rating (R): 4 (4 = 61-80% retardation)
  Uniformity Rating (U): 4
Siberian Elm; [4]
  Retardation Rating (R): 4 (4 = 61-80% retardation)
  Uniformity Rating (U): 4
Siberian Elm; [5]
  Retardation Rating (R): 3 (3 = 41-60% retardation)
  Uniformity Rating (U): 5
Siberian Elm; [6]
  Retardation Rating (R): 3 (3 = 41-60% retardation)
  Uniformity Rating (U): 4
Siberian Elm; [7]
  Retardation Rating (R): 5 (5 = 81-100% retardation)
  Uniformity Rating (U): 5
Siberian Elm; [8]
  Retardation Rating (R): 4 (4 = 61-80% retardation)
  Uniformity Rating (U): 3
Siberian Elm; [9]
  Retardation Rating (R): 4 (4 = 61-80% retardation)
  Uniformity Rating (U): 4
Siberian Elm; [10]
  Retardation Rating (R): 5 (5 = 81-100% retardation)
  Uniformity Rating (U): 5
Siberian Elm; [11]
  Retardation Rating (R): 5 (5 = 81-100% retardation)
  Uniformity Rating (U): 5
Siberian Elm; [12]
  Retardation Rating (R): 5 (5 = 81-100% retardation)
  Uniformity Rating (U): 5
Water Oak; [13]
  Retardation Rating (R): 2 (2 = 21-40% retardation)
  Uniformity Rating (U): 3
Water Oak; [14]
  Retardation Rating (R): 3 (3 = 41-60% retardation)
  Uniformity Rating (U): 3
Water Oak; [15]
  Retardation Rating (R): 3 (3 = 41-60% retardation)
  Uniformity Rating (U): 3
Water Oak; [16]
  Retardation Rating (R): 5 (5 = 81-100% retardation)
  Uniformity Rating (U): 5
Water Oak; [17]
  Retardation Rating (R): 2 (2 = 21-40% retardation)
  Uniformity Rating (U): 3
Water Oak; [18]
  Retardation Rating (R): 5 (5 = 81-100% retardation)
  Uniformity Rating (U): 5
Water Oak; [19]
  Retardation Rating (R): 4 (4 = 61-80% retardation)
  Uniformity Rating (U): 4
Water Oak; [20]
  Retardation Rating (R): 1 (1 = 1-20% retardation)
  Uniformity Rating (U): 1
Water Oak; [21]
  Retardation Rating (R): 0
  Uniformity Rating (U): 0
Water Oak; [22]
  Retardation Rating (R): 3 (3 = 41-60% retardation)
  Uniformity Rating (U): 3
Water Oak; [23]
  Retardation Rating (R): 3 (3 = 41-60% retardation)
  Uniformity Rating (U): 3
Water Oak; [24]
  Retardation Rating (R): 3 (3 = 41-60% retardation)
  Uniformity Rating (U): 3
Water Oak; [25]
  Retardation Rating (R): 5 (5 = 81-100% retardation)
  Uniformity Rating (U): 4
Water Oak; [26]
  Retardation Rating (R): 5 (5 = 81-100% retardation)
  Uniformity Rating (U): 5
Water Oak; [27]
  Retardation Rating (R): 4 (4 = 61-80% retardation)
  Uniformity Rating (U): 5
Water Oak; [28]
  Retardation Rating (R): 5 (5 = 81-100% retardation)
  Uniformity Rating (U): 4
Water Oak; [29]
  Retardation Rating (R): 4 (4 = 61-80% retardation)
  Uniformity Rating (U): 4
Water Oak; [30]
  Retardation Rating (R): 4 (4 = 61-80% retardation)
  Uniformity Rating (U): 4
Water Oak; [31]
  Retardation Rating (R): 3 (3 = 41-60% retardation)
  Uniformity Rating (U): 3
Water Oak; [32]
  Retardation Rating (R): 3 (3 = 41-60% retardation)
  Uniformity Rating (U): 3
Sycamore; [33]
  Retardation Rating (R): 3 (3 = 41-60% retardation)
  Uniformity Rating (U): 4
Sycamore; [34]
  Retardation Rating (R): 4 (4 = 61-80% retardation)
  Uniformity Rating (U): 4
Willow Oak; [33]
  Retardation Rating (R): 4 (4 = 61-80% retardation)
  Uniformity Rating (U): 3
Willow Oak; [35]
  Retardation Rating (R): 4 (4 = 61-80% retardation)
  Uniformity Rating (U): 4
Willow Oak; [34]
  Retardation Rating (R): 5 (5 = 81-100% retardation)
  Uniformity Rating (U): 5
Willow Oak; [36]
  Retardation Rating (R): 4 (4 = 61-80% retardation)
  Uniformity Rating (U): 4
